Source: publication PMC6422671 (British Journal of Clinical Pharmacology, 2019)

Test: Adverse event monitoring, phase I single dose
Protocol: Safety assessments included adverse event (AE) monitoring, vital signs monitoring (systolic and diastolic blood pressure, pulse rate), electrocardiography, physical examinations and laboratory assessments (haematology, clinical chemistry and urinalysis).
The pharmacokinetic analysis set included all participants in the safety analysis set with evaluable pharmacokinetic data and no major protocol deviations. Analyses were performed using Statistical Analysis System (SAS) software, version 9.4. Descriptive statistics were not presented if there were fewer than 3 values available.

Q: For `C[C@@H](N)c1cc(Cl)ccc1Cn1c(=S)[nH]c(=O)c2[nH]ccc21` [AZD4831], which “Any AE” value (5 mg fasted n = 6) is on record?
A: The value was 2 (33.3) n (%).

Q: What about the Epistaxis (5 mg fasted n = 6) of the same compound?
A: Its Epistaxis is 0 n (%).

Q: What about the Gastroenteritis (5 mg fasted n = 6) of the same compound?
A: The Gastroenteritis was 0 n (%).

Q: And the Headache (5 mg fasted n = 6)?
A: The Headache was 0 n (%).

Q: What about the Nasopharyngitis (5 mg fasted n = 6) of the same compound?
A: Its Nasopharyngitis is 0 n (%).

Q: What about the Oropharyngeal pain (5 mg fasted n = 6) of the same compound?
A: The Oropharyngeal pain was 1 (16.7) n (%).

Q: What about the Rash maculopapular (5 mg fasted n = 6) of the same compound?
A: The Rash maculopapular was 0 n (%).

Q: And the Restlessness (5 mg fasted n = 6)?
A: Its Restlessness is 1 (16.7) n (%).

Q: What about the Rhinitis (5 mg fasted n = 6) of the same compound?
A: Its Rhinitis is 0 n (%).

Q: What about the “Any AE” value (15 mg fasted n = 6) of the same compound?
A: The value was 2 (33.3) n (%).

Q: What about the Epistaxis (15 mg fasted n = 6) of the same compound?
A: Its Epistaxis is 1 (16.7) n (%).

Q: What about the Gastroenteritis (15 mg fasted n = 6) of the same compound?
A: Its Gastroenteritis is 0 n (%).

Q: And the Headache (15 mg fasted n = 6)?
A: The Headache was 1 (16.7) n (%).

Q: And the Nasopharyngitis (15 mg fasted n = 6)?
A: The Nasopharyngitis was 0 n (%).

Q: And the Oropharyngeal pain (15 mg fasted n = 6)?
A: The Oropharyngeal pain was 0 n (%).

Q: And the Rash maculopapular (15 mg fasted n = 6)?
A: The Rash maculopapular was 0 n (%).

Q: What about the Restlessness (15 mg fasted n = 6) of the same compound?
A: The Restlessness was 0 n (%).

Q: What about the Rhinitis (15 mg fasted n = 6) of the same compound?
A: Its Rhinitis is 0 n (%).

Q: What about the “Any AE” value (45 mg fasted n = 6) of the same compound?
A: The value was 3 (50.0) n (%).

Q: And the Epistaxis (45 mg fasted n = 6)?
A: The Epistaxis was 0 n (%).

Q: What about the Gastroenteritis (45 mg fasted n = 6) of the same compound?
A: Its Gastroenteritis is 1 (16.7) n (%).

Q: And the Headache (45 mg fasted n = 6)?
A: The Headache was 2 (33.3) n (%).

Q: And the Nasopharyngitis (45 mg fasted n = 6)?
A: Its Nasopharyngitis is 0 n (%).

Q: What about the Oropharyngeal pain (45 mg fasted n = 6) of the same compound?
A: The Oropharyngeal pain was 0 n (%).

Q: What about the Rash maculopapular (45 mg fasted n = 6) of the same compound?
A: Its Rash maculopapular is 1 (16.7) n (%).

Q: What about the Restlessness (45 mg fasted n = 6) of the same compound?
A: Its Restlessness is 0 n (%).

Q: What about the Rhinitis (45 mg fasted n = 6) of the same compound?
A: The Rhinitis was 0 n (%).

Q: What about the “Any AE” value (45 mg fed n = 4) of the same compound?
A: The value was 0 n (%).

Q: What about the Epistaxis (45 mg fed n = 4) of the same compound?
A: Its Epistaxis is 0 n (%).

Q: And the Gastroenteritis (45 mg fed n = 4)?
A: Its Gastroenteritis is 0 n (%).

Q: What about the Headache (45 mg fed n = 4) of the same compound?
A: The Headache was 0 n (%).

Q: What about the Nasopharyngitis (45 mg fed n = 4) of the same compound?
A: Its Nasopharyngitis is 0 n (%).

Q: What about the Oropharyngeal pain (45 mg fed n = 4) of the same compound?
A: Its Oropharyngeal pain is 0 n (%).

Q: And the Rash maculopapular (45 mg fed n = 4)?
A: The Rash maculopapular was 0 n (%).

Q: What about the Restlessness (45 mg fed n = 4) of the same compound?
A: Its Restlessness is 0 n (%).

Q: What about the Rhinitis (45 mg fed n = 4) of the same compound?
A: The Rhinitis was 0 n (%).

Q: And the “Any AE” value (135 mg fasted n = 6)?
A: Its value is 3 (50.0) n (%).

Q: And the Epistaxis (135 mg fasted n = 6)?
A: Its Epistaxis is 0 n (%).

Q: And the Gastroenteritis (135 mg fasted n = 6)?
A: The Gastroenteritis was 0 n (%).

Q: And the Headache (135 mg fasted n = 6)?
A: The Headache was 1 (16.7) n (%).

Q: What about the Nasopharyngitis (135 mg fasted n = 6) of the same compound?
A: The Nasopharyngitis was 1 (16.7) n (%).

Q: What about the Oropharyngeal pain (135 mg fasted n = 6) of the same compound?
A: Its Oropharyngeal pain is 0 n (%).

Q: What about the Rash maculopapular (135 mg fasted n = 6) of the same compound?
A: The Rash maculopapular was 1 (16.7) n (%).

Q: And the Restlessness (135 mg fasted n = 6)?
A: The Restlessness was 0 n (%).

Q: And the Rhinitis (135 mg fasted n = 6)?
A: The Rhinitis was 0 n (%).

Q: What about the “Any AE” value (405 mg fasted n = 6) of the same compound?
A: Its value is 2 (33.3) n (%).

Q: What about the Epistaxis (405 mg fasted n = 6) of the same compound?
A: Its Epistaxis is 0 n (%).

Q: And the Gastroenteritis (405 mg fasted n = 6)?
A: The Gastroenteritis was 0 n (%).

Q: And the Headache (405 mg fasted n = 6)?
A: The Headache was 0 n (%).

Q: And the Nasopharyngitis (405 mg fasted n = 6)?
A: Its Nasopharyngitis is 0 n (%).

Q: And the Oropharyngeal pain (405 mg fasted n = 6)?
A: Its Oropharyngeal pain is 1 (16.7) n (%).

Q: What about the Rash maculopapular (405 mg fasted n = 6) of the same compound?
A: Its Rash maculopapular is 2 (33.3) n (%).

Q: What about the Restlessness (405 mg fasted n = 6) of the same compound?
A: The Restlessness was 0 n (%).

Q: And the Rhinitis (405 mg fasted n = 6)?
A: Its Rhinitis is 1 (16.7) n (%).

Q: And the “maculopapular rash (moderate intensity), participants” value (all participants receiving AZD4831)?
A: The value was 4/30.

Q: And the “maculopapular rash (moderate intensity), participants” value (all participants receiving AZD4831, n = 30)?
A: The value was 13.3%.

Q: And the “duration of maculopapular rash” value (in vivo)?
A: The value was 5 to 9 days.

Q: And the “time of report of maculopapular rash after dosing” value (in vivo)?
A: The value was 7 to 9 days.

Q: And the “Any AE” value (pooled AZD4831 fasted n = 30)?
A: Its value is 12 (40.0) n (%).

Q: What about the Epistaxis (pooled AZD4831 fasted n = 30) of the same compound?
A: The Epistaxis was 1 (3.3) n (%).

Q: And the Gastroenteritis (pooled AZD4831 fasted n = 30)?
A: The Gastroenteritis was 1 (3.3) n (%).

Q: And the Headache (pooled AZD4831 fasted n = 30)?
A: The Headache was 4 (13.3) n (%).

Q: What about the Nasopharyngitis (pooled AZD4831 fasted n = 30) of the same compound?
A: The Nasopharyngitis was 1 (3.3) n (%).

Q: And the Oropharyngeal pain (pooled AZD4831 fasted n = 30)?
A: Its Oropharyngeal pain is 2 (6.7) n (%).

Q: And the Rash maculopapular (pooled AZD4831 fasted n = 30)?
A: Its Rash maculopapular is 4 (13.3) n (%).

Q: What about the Restlessness (pooled AZD4831 fasted n = 30) of the same compound?
A: The Restlessness was 1 (3.3) n (%).

Q: And the Rhinitis (pooled AZD4831 fasted n = 30)?
A: Its Rhinitis is 1 (3.3) n (%).

Q: What about the “serious AEs or deaths” value (whole study) of the same compound?
A: Its value is “no serious AEs or deaths occurred”.
